# Test results from patent US7537765B2, “Inhibition of HIV-1 replication by disruption of the processing of the viral capsid-spacer peptide 1 protein” (priority 2003, dated 2009).
# pIC50: −log10 of the molar value. Read-outs that look alike come from different tables or passages of the source.
# Key:
# Format in all cases: cell-based
# PHA-stimulated PBMC = experiment: Toxicity in PHA-stimulated PBMC, XTT method; conditions: 7 days
# Experimental: Toxicity of DSB was analyzed by incubating with PHA-stimulated PBMC for 7 days at a range of concentrations, then determining cell viability using the XTT method. The 50% cytotoxic concentration was >30 μM, corresponding to an in vitro therapeutic index of approximately 5000.
# [1] = system: drug resistant HIV-1 isolates; experiment: Drug resistant HIV-1 isolates in fresh PBMC, p24 endpoint; conditions: read-out: IC50
# Experimental: A robust virus inhibition assay was used to evaluate the anti-viral activity of DSB against primary HIV-1 isolates propagated in PMBC. Briefly, serial dilutions of DSB were made in medium into 96-well tissue culture plates. 25-250 TCID50 of virus and 5×10^5 PHA-stimulated PBMCs were added to each well. On days 1, 3 and 5 post-infection, media was removed from each well and replaced with fresh media containing DSB at the appropriate concentration.
# (§1) The activity of DSB was tested against a panel of HIV-1 isolates resistant to approved drugs. These viruses were obtained from the NIH AIDS Research and Reference Reagent Program. Assays were performed using virus propagated in PBMCs with a p24 endpoint (above), or using cell line targets (MT-2 cells) and a cell killing endpoint. The MT-2 assay format was as follows. Serial dilutions of DSB, or each approved drug, were prepared in 96 well plates. To each sample well was added media containing MT-2 cells at 3×10^5 cells/mL and virus inoculum at a concentration necessary to result in 80% killing of the cell targets at 5 days post-infection (PI). On day 5 post-infection, virus-induced cell killing was determined by the XTT method and the inhibitory activity of the compound was determined.
# [2] = system: NNRTI-resistant HIV-1 isolates; experiment: NNRTI-resistant HIV-1 isolates in MT-2 cells, cell viability (XTT) endpoint; conditions: X4, MT-2 cells, read-out: IC50
# Experimental: as §1
# HIV-2ROD = experiment: Gag processing (western blot) in chronically infected H9/HIV-2ROD cells
# Experimental: FIG. 2. […] Gag proteins were visualized using HIV-Ig (HIV-1) or monkey anti-SIVmac251 serum (HIV-2 and SIV; NIH AIDS Research and Reference Reagent Program).
# In order to better define DSB's mechanism of action, a detailed examination was undertaken of the virus produced from HIV-1-infected cell lines treated with DSB. Briefly, H9 cells chronically infected with the HIV-1IIIB isolate were treated with DSB at 1 μg/mL for a period of 48 hrs. Indinavir was used as a control. At the 48 hr time-point, spent media was removed and fresh media containing compound was added. At 24, 48 and 72 hrs post fresh compound addition, both cells and supernatant were recovered for analysis. The level of virus in the culture supernatant was determined and western blots were used to characterize viral protein production in both cell-associated and cell-free virus. […] This defect took the form of an additional band in the western blots corresponding to p25 (FIG. 2). This p25 band results from the incomplete processing of the capsid CA-SP1 precursor. […] As discussed above, mutations at the p25 to p24 cleavage site that prevent processing are associated with defects in viral maturation and infectivity (Wiegers K. et al., J. Virol. 72:2846-54 (1998)).
# [3] = system: HIV-1 infectious molecular clone pNL4-3; experiment: EM analysis of HeLa cells transfected with pNL4-3; conditions: DSB-treated samples
# Source text: FIG. 3. EM analysis of DSB-treated HIV-1 infected cells. […] Virions generated in the presence of DSB are characterized by an absence of conical, mature cores. In these samples the cores are uniformly spherical and often acentric. Secondly, many virions display an electron dense layer inside the lipid bilayer but outside the core (indicated with arrows in the DSB-treated sample panels).
# HeLa cells were transfected with HIV-1 infectious molecular clone pNL4-3 and treated as described previously with DSB. Following treatment, DSB-treated infected cells were fixed in glutaraldehyde and analyzed by EM.
# [4] = system: HIV-1 NL4-3 SP1 point deletion mutants; experiment: CA-SP1 processing of NL4-3 SP1 point deletion mutants in transfected HeLa cells (Western blot)
# Experimental: To characterize the effect of deletion or substitution on viral particle production and Gag polyprotein processing, wild-type HIV-1 NL4-3 or SIVmac239 and respective mutant proviral DNAs were transfected into HeLa cells by employing FuGENE 6 transfection reagent (Roche). Briefly, cells were seeded into a 6-well plate (Corning) at a concentration of 0.5×10^5 per well the day before transfection to reach 60 to 80% confluence on the day of transfection. For each transfection, 3 μl of FuGENE 6 was diluted into 100 μl of serum-free DMEM followed by the addition of 1 μg of DNA. After gently mixing, the mixture of DNA-lipid complexes was gently added drop wise into the cells containing 2 ml of complete DMEM medium. Twenty-four hours post-transfection, medium containing DNA-FuGENE 6 complexes was removed, 2 ml of fresh DMEM was added into the transfected cells. […] The level of viral particle production for wild type NL4-3 and point deletion mutants was determined by p24 antigen capture ELISA (ZeptoMetrix, Buffalo, N.Y.). […]
# Sensitivity to DSB was determined in experiments that characterized the effect of DSB on a late step in Gag processing, CA-SP1 cleavage.
# Specifically, these assays measured the ability of DSB to disrupt CA-SP1 processing.
compound,measurement,setting,value
"C=C(C)[C@@H]1CC[C@]2(C(=O)O)CC[C@]3(C)[C@H](CC[C@@H]4[C@@]5(C)CC[C@H](OC(=O)CC(C)(C)C(=O)O)C(C)(C)[C@@H]5CC[C@]43C)[C@@H]12 [DSB, 3-O-(3′,3′-dimethylsuccinyl)betulinic acid]",50% cytotoxic concentration,PHA-stimulated PBMC,> 30 µM
same,pIC50,"[1]; isolate 1, NRTI-resistant, K70R T215Y/F, R5/X4",8.36
same,pIC50,"[1]; isolate 2, NRTI-resistant, K70R T215Y/F, R5/X4",8.38
same,pIC50,"[1]; isolate 5, Protease-resistant, V82A, X4",8.25
same,pIC50,"[1]; isolate 6, Protease-resistant, I84V, X4",8.26
same,pIC50,"[1]; isolate 7, Protease-resistant, L10R/M46I/L63P/V82T/I84V, X4",7.89
same,pIC50,"[2]; isolate 3, NNRTI-resistant, Y181C",9.00
same,pIC50,"[2]; isolate 4, NNRTI-resistant, K103N Y181C",8.89
same,antiviral activity,HIV-2ROD; HIV-2,lack of antiviral activity
same,Gag processing,"HIV-2ROD; HIV-2 chronically infected cell line, 1 μg/mL",normal Gag processing
same,virion morphology by EM,[3],no mature viral particles were observed
same,effect on CA-SP1 processing,"[4]; point deletions starting with residue T372 and extending away from the cleavage site, 1 μg/ml",fully sensitive to DSB-induced disruption of CA-SP1 processing
same,effect on CA-SP1 processing,"[4]; single residue deletion at any of positions E365 through V370, 1 μg/ml",significantly reduces the affect of DSB on CA-SP1 processing
